Results from patent publication US20260176232A1, “PROBENECID COMPOUNDS FOR THE TREATMENT OF INFLAMMASOME-MEDIATED DERMATOLOGICAL CONDITIONS” (Bacainn Biotherapeutics, Ltd., priority 2022, published 2026).

Key:
[1] = test system: Recombinant NLRP3; experiment: Photo-affinity labelling of recombinant NLRP3, anti-PEG immunoblot (FIG. 9C); format: binding; conditions: inferred from photo-affinity probes ADS165, ADS167
[2] = test system: AIM2 inflammasome; experiment: IL-1β secretion in macrophages challenged with poly dA:dT (FIG. 4C); format: cell-based, human; conditions: BT032 20, 100 μM; 6 h
From the text: (§1) In vitro stimulation of human macrophages.

[3] = target: NLRC4 inflammasome (Mus musculus, UniProt Q3UP24); experiment: IL-1β secretion in macrophages challenged with Flagellin (FIG. 4C); format: cell-based, human; conditions: BT032 20, 100 μM; 6 h
Sequence of NLRC4 inflammasome (Q3UP24 whole entry): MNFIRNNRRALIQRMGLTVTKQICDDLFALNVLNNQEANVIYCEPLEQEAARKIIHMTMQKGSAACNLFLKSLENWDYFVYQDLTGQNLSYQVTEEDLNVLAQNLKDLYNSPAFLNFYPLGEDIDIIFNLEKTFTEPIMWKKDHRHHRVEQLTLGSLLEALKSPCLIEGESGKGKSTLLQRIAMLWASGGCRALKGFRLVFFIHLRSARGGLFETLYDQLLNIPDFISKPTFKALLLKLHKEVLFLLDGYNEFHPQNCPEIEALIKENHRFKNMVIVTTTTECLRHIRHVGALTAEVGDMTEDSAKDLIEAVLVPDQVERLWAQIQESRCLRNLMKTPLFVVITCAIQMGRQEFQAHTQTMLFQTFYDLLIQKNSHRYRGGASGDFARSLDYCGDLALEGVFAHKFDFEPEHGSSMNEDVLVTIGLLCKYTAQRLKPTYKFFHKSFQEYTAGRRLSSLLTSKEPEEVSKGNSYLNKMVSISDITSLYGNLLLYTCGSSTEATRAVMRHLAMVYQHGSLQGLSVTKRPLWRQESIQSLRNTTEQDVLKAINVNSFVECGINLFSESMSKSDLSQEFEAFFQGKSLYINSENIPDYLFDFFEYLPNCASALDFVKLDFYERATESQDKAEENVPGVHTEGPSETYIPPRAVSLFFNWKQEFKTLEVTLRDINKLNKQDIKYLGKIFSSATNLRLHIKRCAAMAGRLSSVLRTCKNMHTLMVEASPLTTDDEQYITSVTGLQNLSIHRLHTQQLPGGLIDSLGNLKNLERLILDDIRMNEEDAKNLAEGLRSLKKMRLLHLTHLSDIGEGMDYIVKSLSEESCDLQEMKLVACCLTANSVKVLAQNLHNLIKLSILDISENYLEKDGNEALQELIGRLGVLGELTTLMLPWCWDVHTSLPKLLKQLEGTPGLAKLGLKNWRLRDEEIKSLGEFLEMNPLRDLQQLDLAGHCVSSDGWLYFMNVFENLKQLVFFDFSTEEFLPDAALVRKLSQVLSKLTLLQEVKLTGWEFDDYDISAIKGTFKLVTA
From the text: as §1

[4] = target: NLRP3 inflammasome (Mus musculus, UniProt Q8R4B8); experiment: IL-1β secretion in macrophages challenged with nigericin, MSU or silica (FIG. 4C); conditions: BT032 20, 100 μM; MCC950 5 μM; secreted IL-1β
Sequence of NLRP3 inflammasome (Q8R4B8 whole entry): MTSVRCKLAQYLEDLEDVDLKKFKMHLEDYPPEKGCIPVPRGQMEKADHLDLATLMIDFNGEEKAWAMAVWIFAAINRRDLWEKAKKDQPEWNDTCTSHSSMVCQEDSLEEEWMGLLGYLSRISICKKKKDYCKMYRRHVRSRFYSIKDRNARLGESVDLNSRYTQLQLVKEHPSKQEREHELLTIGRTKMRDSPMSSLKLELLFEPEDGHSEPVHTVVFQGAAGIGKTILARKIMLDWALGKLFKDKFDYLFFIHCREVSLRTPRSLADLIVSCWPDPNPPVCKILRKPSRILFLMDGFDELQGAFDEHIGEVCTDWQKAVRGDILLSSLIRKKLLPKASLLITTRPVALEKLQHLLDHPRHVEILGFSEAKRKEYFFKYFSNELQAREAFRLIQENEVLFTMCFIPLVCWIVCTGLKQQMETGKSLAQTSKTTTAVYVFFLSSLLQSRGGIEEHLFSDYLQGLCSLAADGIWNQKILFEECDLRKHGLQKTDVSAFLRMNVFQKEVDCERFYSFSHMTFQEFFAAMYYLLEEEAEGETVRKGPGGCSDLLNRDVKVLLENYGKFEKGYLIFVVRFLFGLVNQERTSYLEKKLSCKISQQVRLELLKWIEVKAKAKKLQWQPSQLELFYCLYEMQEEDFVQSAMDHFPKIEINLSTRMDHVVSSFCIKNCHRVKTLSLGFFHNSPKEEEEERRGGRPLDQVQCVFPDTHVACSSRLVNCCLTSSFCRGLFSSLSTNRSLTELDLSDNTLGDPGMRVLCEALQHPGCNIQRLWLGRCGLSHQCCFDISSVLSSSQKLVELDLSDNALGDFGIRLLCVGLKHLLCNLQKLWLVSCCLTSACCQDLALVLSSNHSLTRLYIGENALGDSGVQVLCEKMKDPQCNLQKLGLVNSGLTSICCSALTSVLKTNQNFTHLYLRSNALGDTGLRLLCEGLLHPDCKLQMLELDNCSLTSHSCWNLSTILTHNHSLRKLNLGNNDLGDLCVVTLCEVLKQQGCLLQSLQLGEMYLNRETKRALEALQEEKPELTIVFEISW

[5] = test system: NLRP1 inflammasome; experiment: IL-1β secretion in macrophages challenged with L18-MDP (FIG. 4C); format: cell-based, human; conditions: BT032 20, 100 μM; MCC950 5 μM; L18-MDP 100 μg/ml 16 h
From the text: as §1

[6] = target: T1, recombinant full length NLRP1 (Homo sapiens, UniProt Q9C000); experiment: Photo-affinity labelling of recombinant full length NLRP1, anti-PEG immunoblot (FIG. 9E); format: binding; conditions: inferred from photo-affinity probes ADS165, ADS167
T1 sequence (Q9C000 1-1473): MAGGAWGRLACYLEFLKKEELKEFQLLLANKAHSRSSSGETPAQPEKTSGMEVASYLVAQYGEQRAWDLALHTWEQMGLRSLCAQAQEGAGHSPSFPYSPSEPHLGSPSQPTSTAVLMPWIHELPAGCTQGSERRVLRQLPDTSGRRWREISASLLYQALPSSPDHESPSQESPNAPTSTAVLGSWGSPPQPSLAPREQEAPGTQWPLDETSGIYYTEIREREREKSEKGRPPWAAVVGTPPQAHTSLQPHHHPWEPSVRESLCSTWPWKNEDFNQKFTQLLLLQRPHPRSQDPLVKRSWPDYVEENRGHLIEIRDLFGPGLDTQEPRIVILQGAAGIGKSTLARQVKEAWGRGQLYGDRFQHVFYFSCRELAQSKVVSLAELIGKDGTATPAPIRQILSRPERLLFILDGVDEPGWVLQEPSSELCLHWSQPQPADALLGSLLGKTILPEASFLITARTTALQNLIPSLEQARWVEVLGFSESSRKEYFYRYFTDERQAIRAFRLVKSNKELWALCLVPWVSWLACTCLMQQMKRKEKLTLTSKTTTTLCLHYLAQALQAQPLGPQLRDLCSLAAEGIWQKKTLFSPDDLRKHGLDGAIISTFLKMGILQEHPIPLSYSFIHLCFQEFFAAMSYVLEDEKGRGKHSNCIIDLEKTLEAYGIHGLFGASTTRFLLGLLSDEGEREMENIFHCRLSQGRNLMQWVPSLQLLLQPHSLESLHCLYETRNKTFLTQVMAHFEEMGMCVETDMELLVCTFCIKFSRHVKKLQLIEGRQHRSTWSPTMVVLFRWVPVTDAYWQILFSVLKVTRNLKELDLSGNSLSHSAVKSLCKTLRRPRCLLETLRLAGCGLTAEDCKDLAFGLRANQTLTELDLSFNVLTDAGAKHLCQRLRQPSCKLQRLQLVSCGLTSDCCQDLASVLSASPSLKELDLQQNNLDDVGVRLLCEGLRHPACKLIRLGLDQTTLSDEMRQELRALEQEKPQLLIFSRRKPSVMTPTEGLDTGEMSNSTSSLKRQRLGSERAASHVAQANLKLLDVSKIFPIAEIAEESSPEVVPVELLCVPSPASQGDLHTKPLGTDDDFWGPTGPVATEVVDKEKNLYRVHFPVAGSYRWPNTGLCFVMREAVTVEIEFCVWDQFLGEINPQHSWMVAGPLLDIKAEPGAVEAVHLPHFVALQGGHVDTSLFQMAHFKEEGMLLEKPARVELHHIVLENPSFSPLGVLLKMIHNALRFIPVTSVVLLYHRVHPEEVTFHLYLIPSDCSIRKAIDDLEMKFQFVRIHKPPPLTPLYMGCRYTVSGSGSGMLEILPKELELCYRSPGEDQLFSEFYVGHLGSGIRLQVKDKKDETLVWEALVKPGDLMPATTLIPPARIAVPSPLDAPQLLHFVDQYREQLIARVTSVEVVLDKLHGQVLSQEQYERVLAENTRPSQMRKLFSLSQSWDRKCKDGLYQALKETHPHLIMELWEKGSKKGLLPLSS
Experimental: FIGS. 9A-9F are a series of panels showing ADS032 (also referred to herein as “BT032”) directly binds to NLRP1 and NLRP3. FIGS. 9A and 9B are chemical structures of ADS165 and ADS167. […] ADS165 was then co-incubated for 20 mins and UV treated for 20 mins to cross-link associated compound and protein. Protein was separated by SDS-PAGE and immunoblotted (IB) with anti-PEG to visualize ADS165-linked protein. FIG. 9D: iBMDM cells stably expressing NLRP3-Flag were treated for 30 mins with ADS165, ADS167 (1 mM) or MCC955 (50 μM) for 30 mins, and irradiated with UV 365 nm for 30 mins. Cells were lysed with buffer and immunoprecipitation (IP) of NLRP3 performed with α-NLRP3 (D4D8T) antibody. Levels of precipitated (IP) and total cellular lysate (Input) NLRP3 were determined by immunoblotting with α-NLRP3 (Cryo-2) antibody. FIG. 9F: NLRP1-Flag was expressed in HEK293T cells (1×10^6) for 20 h and treated with ADS165 (1 mM) for 30 mins where indicated, followed by UV 365 nm for a further 30 mins. Cells were lysed with lysis buffer and […] immunoprecipitated with α-Flag (M2) antibody. Proteins were separated by SDS-PAGE and ADS165-linked NLRP1 identified by immunoblot with a-PEG, while total precipitated NLRP1 visualized by immunoblot with α-NLRP1 and total cell lysate by α-Flag. Data shown is representative of three independent experiments.
Next, it was determined whether ADSO32 could interact with NLRP1. […] To further investigate this interaction, ectopically expressed Flag-tagged NLRP1 was immunoprecipitated from cell lysates pretreated or not with ADS165 and exposed to UV light.

## CCCN(CCC)S(=O)(=O)c1ccc(-c2ccc(CCCC(=O)O)cc2)cc1 [BT032, 4-(4′-(N,N-dipropylsulfamoyl)-[1,1′-biphenyl]-4-yl)butanoic acid]
[1]
  direct interaction with NLRP3: directly interacts proximal to the Walker B motif within the NACHT domain
[2]
  AIM2 (poly dA:dT)-mediated inflammasome activation: no effect
[3]
  NLRC4 (Flagellin)-mediated inflammasome activation: no effect
[4]
  NLRP3 (Nigericin, MSU, Silica)-induced inflammasome activation: dose-dependently inhibited
[5]
  NLRP1 (L18-MDP)-induced inflammasome activation: dose-dependently inhibited
[6]
  direct interaction with NLRP1: directly interacts proximal to the Walker B motif within the NACHT domain
